For test [1], the target named is T1, Beta-adrenoceptor (Rattus norvegicus, UniProt P18090). As to the kind of experiment: Beta-adrenoceptor blocking effect in reserpinized rats (isoproterenol chronotropy). It counts as in vivo, male Wistar rats. The arrangement: The rats were anesthetized with pentobarbital sodium; from tissue; host or cells: heart in the living anesthetized male Wistar rat (reserpine-pretreated, vagotomized). The following applies: isoproterenol 0.1 μg/kg iv, cumulative iv doses, read-out: Beta-Blocking ED50 (50% blockade of positive chronotropic response to isoproterenol). On the procedure:
(§1) The rats were pretreated with reserpine (8 mg/kg ip), 18 hr before experiments. […] The heart rate was measured with a cardiotachometer triggered by the QRS of the ECG (lead II) and recorded on a polygraph. After the Control response to isoproterenol at a dose of 0.1 μg/kg iv was obtained, the test compound was injected iv in increasing doses at 20 min intervals.

Test [2] has as its target T1, Beta-adrenoceptor. As to the kind of experiment: Intrinsic sympathomimetic activity (ISA) in reserpinized rats. The test is classed as in vivo, male Wistar rats. The arrangement: The rats were anesthetized with pentobarbital sodium; from tissue; host or cells: heart in the living anesthetized male Wistar rat (reserpine-pretreated, vagotomized). Conditions: reserpine-pretreated rats, iv. On the procedure:
as §1
In this series of experiments, intrinsic sympathomimetic activity (ISA) was also evaluated.

Test [3] concerns left coronary artery. As to the kind of experiment: Coronary vasodilating effects in dogs (intracoronary). It counts as in vivo, mongrel dogs. Conditions: for Duration of action of coronary vasodilating effect: intracoronary (ia). On the procedure:
Mongrel dogs of either sex were anesthetized and ventilated as previously described. A thoracotomy was performed at the 4th intercostal space. Following an intravenous injection of heprin (1000 units/kg), blood from the distal end of the cannulated carotid artery was pumped into circumflex branch of the left coronary artery using a servocontrolled peristaltic pump which maintained a constant perfusion pressure of 120 mmHg by means of a pump controller. An electromagnetic flow probe was inserted in the circit to record blood flow through the cannulated coronary artery. The test compounds were administered directly into the rubber tubing connected close to the coronary artery cannula.

Test [4] relates to dog coronary artery. As to the kind of experiment: Effect on 3,4-diaminopyridine (3,4-DAP)-induced rythmic contraction. Conditions: Canis lupus familiaris, read-out: IC50, 3,4-DAP contraction. It counts as cell-based. On the procedure:
The ring segments were cannulated with two triangle stainless-steel hooks and suspended vertically in Krebs-Henseleit solution under the same condition described previously. Preparations were set up under a resting tension of 1.0 g and rhythmic contractions were induced by application of 10 mM 3,4-DAP. Test compound was cumulatively added into the medium. IC50 was estimated from dose-response curves (Table 2, column 2).

Test [5] addresses calcium channels. The experiment in a line: [^3 H]-nitrendipine binding to rat brain membrane.
Test [6] deals with T1, Beta-adrenoceptor. The experiment in a line: cell-based. The following applies: isolated rat right atria, (-)-isoproterenol-induced positive chronotropy; read-out: KB (antagonist dissociation constant).
Excerpt: Beta-adrenoceptor blocking effect of test compounds was estimated by antagonism of (-)-isoproterenol-induced positive chronotropy.
Test [7] relates to rabbit thoracic aorta. The experiment in a line: Effect on KCl-induced contraction of rabbit aorta. The following applies: Oryctolagus cuniculus, read-out: IC50, K contraction.
Test [8] deals with mean arterial blood pressure (MBP) and coronary blood flow (Cor. BF). The experiment in a line: Hemodynamic effects in anesthetized open-chest dogs (i.v.). The test is classed as in vivo, mongrel dogs. The following applies: Canis lupus familiaris; for change in vivo at 0.3 mg/kg: 0.3 mg/kg iv; for change in vivo at 0.3 mg/kg / change in vivo at 1 mg/kg: anesthetized dogs; for change in vivo at 1 mg/kg: 1.0 mg/kg iv; for change in vivo at 0.1 mg/kg: iv. On the procedure:
Mongrel dogs of either sex were anesthetized with pentobarbital sodium (30 mg/kg iv). The animals were artificially ventilated with room air. The chest was opened at the left 4th intercostal space. Mean arterial blood pressure (MBP), heart rate (HR), left ventricular pressure (LVP), max. dLVP/dt, mean pulmonary arterial blood pressure (MPAP), cardiac output (CO) and coronary blood flow (Cor. BF) were measured. The test compounds were injected into the femoral vein. […] BF from control values induced by intravenous injection of test compounds.

Setting [9] is: dog coronary artery, 10 mM 3,4-DAP.
[10] abbreviates: read-out: percent change of Cor. BF from control.
The mark [11] stands for this setting: read-out: percent change of MBP from control.

Where two headings read alike, the source gives them in different places.

T1 sequence (P18090 whole entry): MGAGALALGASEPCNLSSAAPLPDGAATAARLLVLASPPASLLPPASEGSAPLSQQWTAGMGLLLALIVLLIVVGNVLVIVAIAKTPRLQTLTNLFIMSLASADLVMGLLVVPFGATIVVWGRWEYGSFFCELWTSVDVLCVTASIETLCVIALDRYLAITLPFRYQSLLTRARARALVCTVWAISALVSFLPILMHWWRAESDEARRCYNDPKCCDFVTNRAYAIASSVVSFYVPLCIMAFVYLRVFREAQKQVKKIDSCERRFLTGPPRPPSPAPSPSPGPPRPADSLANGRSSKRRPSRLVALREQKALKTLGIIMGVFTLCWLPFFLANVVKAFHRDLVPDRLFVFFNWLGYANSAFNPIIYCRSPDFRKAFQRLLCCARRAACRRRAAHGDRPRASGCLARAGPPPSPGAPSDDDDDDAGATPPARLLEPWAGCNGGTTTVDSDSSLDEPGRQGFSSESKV

For orientation: ED50 means the dose at which the effect has come halfway, by size or by number of responders. What is called IC50 is the point on the concentration scale where inhibition reaches its midpoint. By Ki is commonly meant the dissociation constant of the complex between target and ligand, obtained from inhibition or displacement. What is called Kb is the equilibrium dissociation constant of an antagonist, usually derived from a functional assay. As to `COC(=O)C1=C(C)NC(C)=C(C(=O)OCCCCCCNCC(O)COc2ccccc2)C1c1cccc([N+](=O)[O-])c1.Cl` (centres unmarked) [Example 12, 6-(2-hydroxy-3-phenoxy-propylamino)hexyl methyl 2,6-dimethyl-4-(m-nitro-phenyl)-1,4-dihydropyridine-3,5-dicarboxylate hydrochloride], the ED50 in test [1] was found to be 0.6 mg/kg. The “ISA (increase in HR)” value in test [2] was “-”. Moreover, the “ED100 pap (dose for 100% increase of Cor. BF; maximum response to papaverine 300 μg ia = 100%)” value in test [3] was determined as 100 μg ia. In addition, the “Duration of action of coronary vasodilating effect” value (“Duration” for short) in test [3] is > 60 min. Further, the IC50 turned out to be 19 nM in test [4] (setting [9]), 12 nM in test [5] and 33 nM in test [7]. In test [5], the inhibition constant Ki is 6.15 nM. Further, in test [5], the “Slope, ^3 H-Nitrendipine binding” value was 1.38. The antagonist dissociation constant (Kb) in test [6] worked out at 63 nM. The values for the change in vivo at 0.3 mg/kg in test [8] (setting [10]) and in test [8] (setting [11]) were 45% and -26%, respectively.
Consider `COC(=O)C1=C(C)NC(C)=C(C(=O)OCCCCCCNCC(O)COc2ccccc2)C1c1ccccc1OC.Cl` (centres unmarked) [Example 47, 6-(2-hydroxy-3-phenoxypropylamino)hexyl methyl 2,6-dimethyl-4-(o-methoxyphenyl)-1,4-dihydropyridine-3,5-dicarboxylate hydrochloride], for which, in test [1], the ED50 is 0.11 mg/kg. Also, the “ISA (increase in HR)” value in test [2] is on record as “+++ (an increase in HR by above 30 beats/min)”. For the same compound, in test [3], the “ED100 pap (dose for 100% increase of Cor. BF; maximum response to papaverine 300 μg ia = 100%)” value is recorded as 245 μg ia and the “Duration” value is reported as > 60 min. In test [8] (setting [10]), the change in vivo at 0.3 mg/kg was found to be 30% and the change in vivo at 1 mg/kg stood at 57%. Moreover, in test [8] (setting [11]), the change in vivo at 0.3 mg/kg was -34% and the change in vivo at 1 mg/kg is -44%.
On to `COC(=O)C1=C(C)NC(C)=C(C(=O)OCCCCCCNCC(O)COc2ccccc2)C1c1cccc(C)c1.Cl` (centres unmarked) [Example 48, 6-(2-hydroxy-3-phenoxypropylamino)hexyl methyl 2,6-dimethyl-4-(m-methylphenyl)-1,4-dihydro-pyridine-3,5-dicarboxylate hydrochloride], for which, in test [1], the 50% effective dose (ED50) amounted to 0.68 mg/kg. The “ISA (increase in HR)” value in test [2] is listed as “-”. Besides, in test [3], the “ED100 pap (dose for 100% increase of Cor. BF; maximum response to papaverine 300 μg ia = 100%)” value is given as 76 μg ia and the “Duration” value is on record as 60 min. In test [8] (setting [10]), the change in vivo at 0.3 mg/kg came to 71% and the change in vivo at 1 mg/kg was 92%. Further, in test [8] (setting [11]), the change in vivo at 0.3 mg/kg is -20% and the change in vivo at 1 mg/kg is -43%.
With `COC(=O)C1=C(C)NC(C)=C(C(=O)OCCN(C)Cc2ccccc2)C1c1cccc([N+](=O)[O-])c1` (centres unmarked) [Nicardipine, reference compound], the half-inhibitory concentration (IC50) amounted to 2.1 nM in test [4] (setting [9]), 1.6 nM in test [5] and 1 nM in test [7]. Also, in test [5], the inhibition constant (Ki) stood at 0.9 nM. The “Slope, ^3 H-Nitrendipine binding” value in test [5] was 0.90.
As for `COc1ccc(CCN(C)CCCC(C#N)(c2ccc(OC)c(OC)c2)C(C)C)cc1OC` (centres unmarked) [Verapamil, reference compound], the “ED100 pap (dose for 100% increase of Cor. BF; maximum response to papaverine 300 μg ia = 100%)” value in test [3] worked out at 8 μg ia. Besides, the IC50 is 126 nM in test [4] and 75 nM in test [7]. The change in vivo at 0.1 mg/kg in test [8] (setting [10]) is 95%; in test [8] (setting [11]) it was -23%.

(Values after patent US5591757A, “Dihydropyridine composition” (Yamanouchi Pharmaceutical Co., Ltd., priority 1984, dated 1997).)
